Molecules are shown by their SMILES.

From US8653263B2 (Janssen Pharmaceutica, priority 2009, dated 2014) come the findings set out here.

Chain of human orexin-2 receptor (O43614 whole entry): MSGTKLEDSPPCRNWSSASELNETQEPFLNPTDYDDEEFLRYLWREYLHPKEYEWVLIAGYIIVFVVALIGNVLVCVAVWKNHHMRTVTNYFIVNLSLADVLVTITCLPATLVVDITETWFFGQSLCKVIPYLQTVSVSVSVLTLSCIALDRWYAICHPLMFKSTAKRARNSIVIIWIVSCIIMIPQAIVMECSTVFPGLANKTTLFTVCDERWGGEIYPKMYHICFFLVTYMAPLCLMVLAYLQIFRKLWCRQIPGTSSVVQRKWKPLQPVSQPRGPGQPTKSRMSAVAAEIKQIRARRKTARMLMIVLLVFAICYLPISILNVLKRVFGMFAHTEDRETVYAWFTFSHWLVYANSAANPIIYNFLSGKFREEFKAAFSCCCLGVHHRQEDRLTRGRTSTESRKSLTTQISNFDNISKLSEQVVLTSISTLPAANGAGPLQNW

The test concerns the target human orexin-2 receptor (Homo sapiens (Human), UniProt O43614). Briefly: Human orexin 2 receptor radioligand binding ([3H]-EMPA competition). The following applies: HEK293 cells stably expressing human orexin-2 receptor; [3H]-EMPA 5 nM final; apparent Ki=IC50/(1+C/Kd), Kd=2 nM; read-out: OR 2 Ki.
Consider `COc1cc(N2CC3CN(C(=O)c4c(F)cccc4-n4nccn4)CC3C2)nc(N(C)C)n1` (stereo not shown) [Example 1, 4-[5-{[2-Fluoro-6-(2H-1,2,3-triazol-2-yl)phenyl]carbonyl}hexahydropyrrolo[3,4-c]pyrrol-2(1H)-yl]-6-methoxy-N,N-dimethylpyrimidin-2-amine], for which the Ki worked out at 37 nM.

As to `CN(C)c1cc(N2CC3CN(C(=O)c4ccccc4-n4nccn4)CC3C2)nc(C(F)(F)F)n1` (stereo not shown) [Example 2, N,N-Dimethyl-6-[5-{[2-(2H-1,2,3-triazol-2-yl)phenyl]carbonyl}hexahydropyrrolo[3,4-c]pyrrol-2(1H)-yl]-2-(trifluoromethyl)pyrimidin-4-amine], the Ki was 33 nM.

On to `CN(C)c1cc(N2CC3CN(C(=O)c4c(F)cccc4-n4nccn4)CC3C2)nc(C(F)(F)F)n1` (stereo not shown) [Example 3, 6-[5-{[2-Fluoro-6-(2H-1,2,3-triazol-2-yl)phenyl]carbonyl}hexahydropyrrolo[3,4-c]pyrrol-2(1H)-yl]-N,N-dimethyl-2-(trifluoromethyl)pyrimidin-4-amine], for which the Ki turned out to be 42 nM.

Consider `COc1cc(N2CC3CN(C(=O)c4cc(F)ccc4-n4nccn4)CC3C2)nc(N(C)C)n1` (stereo not shown) [Example 4, 4-[5-{[5-Fluoro-2-(2H-1,2,3-triazol-2-yl)phenyl]carbonyl}hexahydropyrrolo[3,4-c]pyrrol-2(1H)-yl]-6-methoxy-N,N-dimethylpyrimidin-2-amine], for which the Ki turned out to be 65 nM.

Turning to `COc1cc(N2CC3CN(C(=O)c4ccccc4-n4nccn4)CC3C2)nc(N(C)C)n1` (stereo not shown) [Example 5, 4-Methoxy-N,N-dimethyl-6-[5-{[2-(2H-1,2,3-triazol-2-yl)phenyl]carbonyl}hexahydropyrrolo-[3,4-c]pyrrol-2(1H)-yl]pyrimidin-2-amine], the Ki stood at 14 nM.

For `CN(C)c1cc(N2CC3CN(C(=O)c4ccc(F)cc4-n4nccn4)CC3C2)nc(C(F)(F)F)n1` (stereo not shown) [Example 6, 6-[5-{[4-Fluoro-2-(2H-1,2,3-triazol-2-yl)phenyl]carbonyl}hexahydropyrrolo[3,4-c]pyrrol-2(1H)-yl]-N,N-dimethyl-2-(trifluoromethyl)pyrimidin-4-amine], the Ki was determined as 67 nM.

With `COc1cc(N2CC3CN(C(=O)c4ccc(F)cc4-n4nccn4)CC3C2)nc(N(C)C)n1` (stereo not shown) [Example 7, 4-[5-{[4-Fluoro-2-(2H-1,2,3-triazol-2-yl)phenyl]carbonyl}hexahydropyrrolo[3,4-c]pyrrol-2(1H)-yl]-6-methoxy-N,N-dimethylpyrimidin-2-amine], the Ki was determined as 42 nM.

Turning to `Cc1cc(C)nc(N2CC3CN(C(=O)c4sccc4-n4cccc4)CC3C2)n1` (stereo not shown) [Example 8, 2-(4,6-Dimethylpyrimidin-2-yl)-5-{[3-(1H-pyrrol-1-yl)thiophen-2-yl]carbonyl}octahydro-pyrrolo[3,4-c]pyrrole], the Ki is 542 nM.

`CN(C)c1cc(N2CC3CN(C(=O)c4cc(F)ccc4-n4nccn4)CC3C2)nc(C(F)(F)F)n1` (stereo not shown) [Example 9, 6-[5-{[5-Fluoro-2-(2H-1,2,3-triazol-2-yl)phenyl]carbonyl}hexahydropyrrolo[3,4-c]pyrrol-2(1H)-yl]-N,N-dimethyl-2-(trifluoromethyl)pyrimidin-4-amine]: the Ki amounted to 101 nM.

`Cc1cc(C)nc(N2CC3CN(C(=O)c4ccnn4-c4ccccc4)CC3C2)n1` (stereo not shown) [Example 10, 2-(4,6-Dimethylpyrimidin-2-yl)-5-[(1-phenyl-1H-pyrazol-5-yl)carbonyl]octahydropyrrolo[3,4-c]pyrrole]: the Ki amounted to 170 nM.

For the compound `Cc1cc(C)nc(N2CC3CN(C(=O)c4sccc4-c4ccccc4)CC3C2)n1` (stereo not shown) [Example 12, 2-(4,6-Dimethylpyrimidin-2-yl)-5-[(3-phenylthiophen-2-yl)carbonyl]octahydropyrrolo[3,4-c]pyrrole], the Ki was 46 nM.

With `Cc1cc(C)nc(N2CC3CN(C(=O)c4occc4-c4ccccc4)CC3C2)n1` (stereo not shown) [Example 13, 2-(4,6-Dimethylpyrimidin-2-yl)-5-[(3-phenylfuran-2-yl)carbonyl]octahydropyrrolo[3,4-c]pyrrole], the Ki came out at 89 nM.

As for `Cc1cc(C)nc(N2CC3CN(C(=O)c4ccccc4-c4nnc[nH]4)CC3C2)n1` (stereo not shown) [Example 14, 2-(4,6-Dimethylpyrimidin-2-yl)-5-{[2-(1H-1,2,4-triazol-5-yl)phenyl]carbonyl}octahydro-pyrrolo[3,4-c]pyrrole], the Ki worked out at 28 nM.

`COc1ccc(C(=O)N2CC3CN(c4nc5ccc(F)cc5s4)CC3C2)c(OC)c1` (stereo not shown) [Example 16, 2-{5-[(2,4-Dimethoxyphenyl)carbonyl]hexahydropyrrolo[3,4-c]pyrrol-2(1H)-yl}-6-fluoro-1,3-benzothiazole]: the Ki amounted to 300 nM.

In the case of `COc1ccc(C(=O)N2CC3CN(c4nc5ccccc5s4)CC3C2)c(OC)c1` (stereo not shown) [Example 17, 2-{5-[(2,4-Dimethoxyphenyl)carbonyl]hexahydropyrrolo[3,4-c]pyrrol-2(1H)-yl}-1,3-benzothiazole], the Ki turned out to be 730 nM.

For `O=C(c1ccccc1-n1cccn1)N1CC2CN(c3cnc4ccccc4n3)CC2C1` (stereo not shown) [Example 18, 2-[5-{[2-(1H-Pyrazol-1-yl)phenyl]carbonyl}hexahydropyrrolo[3,4-c]pyrrol-2(1H)-yl]quinoxaline], the Ki was determined as 519 nM.

Consider `O=C(c1ccccc1-c1cccs1)N1CC2CN(c3cnc4ccccc4n3)CC2C1` (stereo not shown) [Example 19, 2-{5-[(2-Thiophen-2-ylphenyl)carbonyl]hexahydropyrrolo[3,4-c]pyrrol-2(1H)-yl}quinoxaline], for which the Ki came out at 24 nM.

With `O=C(c1cccc2c1OCCO2)N1CC2CN(c3nccc(-c4ccccc4)n3)CC2C1` (stereo not shown) [Example 21, 2-(2,3-Dihydro-1,4-benzodioxin-5-ylcarbonyl)-5-(4-phenylpyrimidin-2-yl)octahydropyrrolo[3,4-c]pyrrole], the Ki came to 352 nM.

For `O=C(c1ccccc1-c1cccs1)N1CC2CN(c3nccc(-c4ccccc4)n3)CC2C1` (stereo not shown) [Example 22, 2-(4-Phenylpyrimidin-2-yl)-5-[(2-thiophen-2-ylphenyl)carbonyl]octahydro-pyrrolo[3,4-c]pyrrole], the Ki came out at 70 nM.

Take `O=C(c1ccccc1-n1cccn1)N1CC2CN(c3nccc(-c4ccccc4)n3)CC2C1` (stereo not shown) [Example 23, 2-(4-Phenylpyrimidin-2-yl)-5-{[2-(1H-pyrazol-1-yl)phenyl]carbonyl}octahydro-pyrrolo[3,4-c]pyrrole]: the Ki was determined as 364 nM.

`O=C(c1ccccc1-n1cccc1)N1CC2CN(c3nccc(-c4ccccc4)n3)CC2C1` (stereo not shown) [Example 24, 2-(4-Phenylpyrimidin-2-yl)-5-{[2-(1H-pyrrol-1-yl)phenyl]carbonyl}octahydro-pyrrolo[3,4-c]pyrrole]: the Ki was found to be 415 nM.

For `Cc1ccc2ccccc2c1C(=O)N1CC2CN(c3nccc(-c4ccccc4)n3)CC2C1` (stereo not shown) [Example 25, 2-[(2-Methylnaphthalen-1-yl)carbonyl]-5-(4-phenylpyrimidin-2-yl)octahydropyrrolo[3,4-c]pyrrole], the Ki is 110 nM.

In the case of `N#Cc1ccccc1C(=O)N1CC2CN(c3cnc4ccccc4n3)CC2C1` (stereo not shown) [Example 26, 2-(5-Quinoxalin-2-yl-hexahydro-pyrrolo[3,4-c]pyrrole-2-carbonyl)-benzonitrile], the Ki stood at 9000 nM.

On to `O=C(c1ccccc1-n1cccc1)N1CC2CN(c3cnc4ccccc4n3)CC2C1` (stereo not shown) [Example 27, 2-[5-{[2-(1H-Pyrrol-1-yl)phenyl]carbonyl}hexahydropyrrolo[3,4-c]pyrrol-2(1H)-yl]quinoxaline], for which the Ki is 740 nM.

As to `O=C(c1ccccc1-c1ccc(F)cc1)N1CC2CN(c3cnc4ccccc4n3)CC2C1` (stereo not shown) [Example 28, 2-{5-[(4′-Fluorobiphenyl-2-yl)carbonyl]hexahydropyrrolo[3,4-c]pyrrol-2(1H)-yl}quinoxaline], the Ki was 575 nM.

Turning to `O=C(c1ccccc1-c1cccc(F)c1)N1CC2CN(c3cnc4ccccc4n3)CC2C1` (stereo not shown) [Example 29, 2-{5-[(3′-Fluorobiphenyl-2-yl)carbonyl]hexahydropyrrolo[3,4-c]pyrrol-2(1H)-yl}quinoxaline], the Ki is 135 nM.

With `Cc1ccccc1C(=O)N1CC2CN(c3cnc4ccccc4n3)CC2C1` (stereo not shown) [Example 30, 2-{5-[(2-Methylphenyl)carbonyl]hexahydropyrrolo[3,4-c]pyrrol-2(1H)-yl}quinoxaline], the Ki was 790 nM.

For the compound `O=C(c1ccccc1-c1ccccc1)N1CC2CN(c3nccc(-c4ccco4)n3)CC2C1` (stereo not shown) [Example 31, 2-(Biphenyl-2-ylcarbonyl)-5-(4-furan-2-ylpyrimidin-2-yl)octahydropyrrolo[3,4-c]pyrrole], the Ki stood at 425 nM.

For the compound `Cc1ccnc(N2CC3CN(C(=O)c4ccccc4-c4cccs4)CC3C2)n1` (stereo not shown) [Example 32, 2-(4-Methylpyrimidin-2-yl)-5-[(2-thiophen-2-ylphenyl)carbonyl]octahydro-pyrrolo[3,4-c]pyrrole], the Ki was found to be 47 nM.

As for `O=C(c1ccccc1-c1cccs1)N1CC2CN(c3ccc4ccccc4n3)CC2C1` (stereo not shown) [Example 33, 2-{5-[(2-Thiophen-2-ylphenyl)carbonyl]hexahydropyrrolo[3,4-c]pyrrol-2(1H)-yl}quinoline], the Ki came to 250 nM.

In the case of `O=C(c1ccccc1-c1cccs1)N1CC2CN(c3nccc(-c4ccco4)n3)CC2C1` (stereo not shown) [Example 34, 2-(4-Furan-2-ylpyrimidin-2-yl)-5-[(2-thiophen-2-ylphenyl)carbonyl]octahydro-pyrrolo[3,4-c]pyrrole], the Ki is 79 nM.

As for `CCc1ccccc1C(=O)N1CC2CN(c3cnc4ccccc4n3)CC2C1` (stereo not shown) [Example 35, 2-{5-[(2-Ethylphenyl)carbonyl]hexahydropyrrolo[3,4-c]pyrrol-2(1H)-yl}quinoxaline], the Ki was determined as 722 nM.

Consider `O=C(c1ccccc1-c1cccs1)N1CC2CN(c3nccc(-c4cccs4)n3)CC2C1` (stereo not shown) [Example 37, 2-[(2-Thiophen-2-ylphenyl)carbonyl]-5-(4-thiophen-2-ylpyrimidin-2-yl)octahydro-pyrrolo[3,4-c]pyrrole], for which the Ki was 181 nM.

In the case of `O=C(c1ccccc1-c1ccccc1)N1CC2CN(c3nccc(-c4cccs4)n3)CC2C1` (stereo not shown) [Example 38, 2-(Biphenyl-2-ylcarbonyl)-5-(4-thiophen-2-ylpyrimidin-2-yl)octahydropyrrolo[3,4-c]pyrrole], the Ki is 515 nM.
